Here are results for 29 molecules from patent USRE39088E1, “Amide compounds and use of the same” (Japan Tobacco, Inc., priority 1995, dated 2006).

Structures can show the parent of a compound that is named as a salt.

A word on the inhibition in vivo: it is how much of the control response was suppressed. Low values mean a weak effect, high ones a strong effect. What is called IC50 is the concentration needed to halve the response being measured.

The test system of one test is ALT in blood. As to the kind of experiment: Suppression of LPS/D-galactosamine-induced hepatitis. The following applies: tail vein, 10 minutes before LPS/D-galactosamine, ALT in blood at 6 hours, male C57BL/6 mice; for inhibition in vivo at 10 mg/kg / inhibition in vivo at 5 mg/kg: Mus musculus, iv. It is filed as in vivo. Here is the method:
Suppression of LPS/D-galactosamine-induced hepatitis
LPS (5 μg/kg)D-galactosamine (500 mg/kg) in physiological saline was intraperitoneally injected to male C57BL/6 mice to induce hepatitis. Six hours after the injection of LPS/D-galactosamine in physiological saline, blood was taken from the mice orbital venosus plexus. Plasma was separated from the blood, and ALT in blood was determined by a biochemical analyzer. The test sample was administered from the tail vein at 10 minutes before the injection of LPS/D-galactosamine in physiological saline, and the degree of suppression was investigated. The suppression by the test sample is shown in the ratio relative to the suppression in the control group.
Suppression (%)=100-(ALT amount of group treated with test sample/ALT amount of control group)×100

A further test has as its system IL-8. As to the kind of experiment: Suppression of production of inflammatory cytokines: IL-8 in LPS-stimulated human peripheral blood monocytes (ELISA). The following applies: supernatant 20 hours after LPS. It is filed as cell-based. Here is the method:
(§1) Suppression of production of inflammatory cytokines
(§2) Thirty ml of human peripheral blood added with heparin was placed on Ficol-Paque (15 ml), and centrifuged at 400 G for 40 minutes at room temperature. The obtained monocyte fraction layers were collected and washed three times with E-MEM medium. The cells were adjusted to a final concentration of 0.5×10^5 cells/800 μl with RPMI-1640 medium containing 5% bovine fetal serum (2-mercaptoethanol), and seeded in a 24 well plant by 800 μl. A test sample (100 μl) was added and 100 μl of lipopolysarcharide (LPS, 100 μg/ml) was added one hour later. The supernatant was taken at 20 hours after stimulation with LPS, and amounts of various cytokines were determined using an ELISA kit.

For a further test, the system named is TNF-α. As to the kind of experiment: Suppression of production of inflammatory cytokines: TNF-α in LPS-stimulated human peripheral blood monocytes (ELISA). It is filed as cell-based. The following applies: Monocyte; LPS-stimulated human peripheral blood monocytes, supernatant 20 hours after LPS, ELISA; read-out: IC50 (μM) TNF. Here is the method: as §1, §2
For orientation: ELISA stands for enzyme-linked immunosorbent assay.

A further test relates to IL-1. As to the kind of experiment: Suppression of production of inflammatory cytokines: IL-1 in LPS-stimulated human peripheral blood monocytes (ELISA). It is filed as cell-based. The note with it: Monocyte; LPS-stimulated human peripheral blood monocytes, supernatant 20 hours after LPS, ELISA; read-out: IC50 (μM) IL-1β. Here is the method: as §1, §2

`CCOC(=O)[C@H](Cc1ccccc1)NC(=O)c1cc(Cl)c(OCCN2CCN(C)CC2)c(Cl)c1O` [Example 2, N-{3,5-Dichloro-2-hydroxy-4-[2-(4-methylpiperazin-1-yl)ethoxy]-benzoyl}-L-phenylalanine ethyl ester dihydrochloride] displayed an inhibition in vivo at 10 mg/kg with ALT in blood of 65%. The same molecule registered a 50% inhibitory concentration (IC50) in the test on IL-8 (Homo sapiens, Monocyte, 20 h) of 0.01 µM.

As to `COC(=O)[C@H](Cc1ccccc1)NC(=O)c1ccc(OCCCN)cc1O` [Example 3], the IC50 is 14 µM with TNF-α; more than 30 µM in the test with IL-1; more than 30 µM in the test on IL-8 (Homo sapiens, Monocyte, 20 h).

Take `COC(=O)[C@H](Cc1ccccc1)NC(=O)c1ccc(OCCCCCN)cc1O` [Example 5]: the IC50 in the test on TNF-α was 6 µM; with IL-1 it was 75 µM; in the test with IL-8 (Homo sapiens, Monocyte, 20 h), 6 µM.

Consider `COC(=O)[C@H](Cc1ccccc1)NC(=O)c1ccc(OCCCCCCN)cc1O` [Example 6], for which the IC50 in the test on TNF-α amounted to 6 µM; with IL-1 it was 14 µM; with IL-8 (Homo sapiens, Monocyte, 20 h), 14 µM.

Consider `CNCCCCOc1c(Cl)cc(C(=O)N[C@@H](Cc2ccccc2)C(=O)OC)c(O)c1C` [Example 10], for which the inhibition in vivo at 10 mg/kg with ALT in blood was determined as 77%. For the same molecule, the IC50 in the test on IL-8 (Homo sapiens, Monocyte, 20 h) was determined as 0.6 µM.

`CCOC(=O)C(Cc1ccccc1)NC(=O)c1cc(Cl)c(OCCCCNC)c(Cl)c1O` (stereo not shown) [Example 22] came in with an inhibition in vivo at 10 mg/kg in the test with ALT in blood of 51%. This molecule also yielded an IC50 in the test with IL-8 of less than 0.01 µM.

In the test on ALT in blood, `CC(C)OC(=O)[C@H](Cc1ccccc1)NC(=O)c1cc(Cl)c(OCCCCN)c(Cl)c1O` [Example 27] showed an inhibition in vivo at 10 mg/kg of 67%. This molecule came in with an IC50 in the test with IL-8 (Homo sapiens, Monocyte, 20 h) of less than 0.01 µM.

Regarding `CCCCCCOC(=O)[C@H](Cc1ccccc1)NC(=O)c1cc(Cl)c(OCCCCNC)c(Cl)c1O` [Example 31], the inhibition in vivo at 5 mg/kg in the test with ALT in blood (dose 5 mg/kg) stood at 87%. Besides, the IC50 in the test with IL-8 (Homo sapiens, Monocyte, 20 h) is less than 0.01 µM.

As for `COC(=O)[C@H](Cc1ccccc1)NC(=O)c1cc(Cl)c(OCCCCNC(=N)N)c(Cl)c1O` [Example 32], 10 mg/kg produced 78% inhibition in vivo in the test with ALT in blood. In the test on IL-8 (Homo sapiens, Monocyte, 20 h), this molecule showed an IC50 of 0.5 µM.

In turn, `COC(=O)[C@H](Cc1ccccc1)NC(=O)c1cc(Cl)c(OCCOCCN(C)C)c(Cl)c1O` [Example 37] came in with an inhibition in vivo at 10 mg/kg with ALT in blood of 80%. Half-maximal inhibition in the test with IL-8 (Homo sapiens, Monocyte, 20 h) (IC50) required 0.3 µM.

As for `NCCCCOc1c(Cl)cc(C(=O)N[C@@H](Cc2ccccc2)C(=O)OC2CCCCC2)c(O)c1Cl` [Example 45], the IC50 was 0.004 µM in the test with TNF-α; 0.0008 µM in the test with IL-1; 0.004 µM with IL-8 (Homo sapiens, Monocyte, 20 h). In the test with ALT in blood, the inhibition in vivo at 10 mg/kg was 30%.

Regarding `CNCCCCOc1c(Cl)cc(C(=O)N[C@@H](Cc2ccccc2)C(=O)OC2CCCCC2)c(O)c1Cl` [Example 46], the inhibition in vivo at 10 mg/kg in the test on ALT in blood was determined as 57%. In addition, in the test with IL-8 (Homo sapiens, Monocyte, 20 h), the IC50 is less than 0.01 µM.

Turning to `CNCCCCOc1c(Cl)cc(C(=O)N[C@@H](Cc2ccccc2)C(=O)NCC(=O)O)c(O)c1Cl` [Example 50], the inhibition in vivo at 10 mg/kg in the test with ALT in blood worked out at 15%. The molecule further had an IC50 with IL-8 (Homo sapiens, Monocyte, 20 h) of 28 µM.

In the test on ALT in blood, `COC(=O)[C@H](Cc1ccccc1)NC(=O)c1cc(Cl)c(OCCN2CCNC(C)C2)c(Cl)c1O` (stereo partly shown) [Example 60] displayed an inhibition in vivo at 10 mg/kg of 42%. The IC50 in the test on IL-8 (Homo sapiens, Monocyte, 20 h) was determined as 0.03 µM.

`COC(=O)[C@H](Cc1ccccc1)NC(=O)c1cc(Cl)c(OCCN2CCN[C@@H](C)C2)c(Cl)c1O` [Example 61] returned an inhibition in vivo at 10 mg/kg in the test with ALT in blood of 6%.

Turning to `CNCCCCOc1c(Cl)cc(C(=O)N[C@@H](Cc2ccccc2)C(=O)OC)c(OC(=O)c2ccccc2)c1Cl` [Example 105, N-[2-Benzoyloxy-3,5-dichloro-4-(4-methylaminobutoxy)benzoyl]-L-phenylalanine methyl ester hydrochloride], the IC50 was determined as 0.004 µM with TNF-α; 0.001 µM in the test on IL-1; 0.005 µM in the test on IL-8 (Homo sapiens, Monocyte, 20 h). The same molecule showed an inhibition in vivo at 10 mg/kg in the test with ALT in blood of 40%.

In the case of `CCOC(=O)C(Cc1ccccc1)NC(=O)c1cc(Cl)c(OCCCCNC)c(Cl)c1OC(C)=O` (stereo not shown) [Example 117], the inhibition in vivo at 10 mg/kg in the test on ALT in blood was 54%. The IC50 in the test with IL-8 (Homo sapiens, Monocyte, 20 h) is less than 0.01 µM.

For the molecule `COC(=O)[C@H](Cc1ccccc1)NC(=O)c1cc(Cl)c(OCCN2CCN[C@@H](C)C2)c(Cl)c1OC(=O)c1ccccc1` [Example 123], the inhibition in vivo at 10 mg/kg with ALT in blood stood at 41%.

As for `CNCCCCOc1c(Cl)cc(C(=O)N[C@@H](Cc2ccccc2)C(=O)O)c(O)c1Cl` [Example 126, N-[3,5-Dichloro-2-hydroxy-4-(4-methylaminobutoxy)benzoyl]-L-phenylalanine hydrochloride], the inhibition in vivo at 10 mg/kg in the test on ALT in blood is 27%. In the test on IL-8 (Homo sapiens, Monocyte, 20 h), half-maximal inhibition (IC50) was put at 0.8 µM.

In the test on ALT in blood (dose 5 mg/kg), `NCCCCOc1c(Cl)cc(C(=O)N[C@@H](Cc2ccccc2)C(=O)O)c(O)c1Cl` [Example 127] registered an inhibition in vivo at 5 mg/kg of 82%. Further, in the test with IL-8 (Homo sapiens, Monocyte, 20 h), the IC50 is 0.2 µM.

With `Cl.NCCCCOc1c(Cl)cc(C(=O)N[C@@H](Cc2ccccc2)C(=O)Nc2ccccc2)c(O)c1Cl` [Example 138, N-[3,5-Dichloro-2-hydroxy-4-(4-aminobutoxy)benzoyl]-L-phenyl-alanylaminobenzene hydrochloride], the “Inhibition (%)” value with ALT in blood (dose 5 mg/kg) is recorded as 22%. This molecule also had an IC50 with IL-8 of 1 µM.

Take `NCCCCOc1c(Cl)cc(C(=O)N[C@@H](Cc2ccccc2)C(=O)Nc2ccc(F)cc2)c(O)c1Cl` [Example 141]: in the test on IL-8 (Homo sapiens, Monocyte, 20 h), it took 3 µM to reach half-maximal inhibition (IC50).

As to `NCCCCOc1c(Cl)cc(C(=O)N[C@@H](Cc2ccccc2)C(=O)Nc2ccccn2)c(O)c1Cl` [Example 142], the IC50 in the test on IL-8 (Homo sapiens, Monocyte, 20 h) was determined as 0.4 µM.

Consider `CNCCCCOc1c(Cl)cc(C(=O)N[C@@H](Cc2ccccc2)C(=O)NO)c(O)c1Cl` [Example 143, N-[3,5-Dichloro-2-hydroxy-4-(4-methylaminobutoxy)benzoyl]-L-phenylalanylhydroxyamide], for which the half-maximal inhibitory concentration (IC50) in the test on IL-8 was 3 µM.

With `Cc1noc([C@H](Cc2ccccc2)NC(=O)c2cc(Cl)c(OCCCCN)c(Cl)c2O)n1` [Example 144, N-[4-(4-Aminobutoxy)-3,5-dichloro-2-hydroxybenzoyl]-1-(3-methyl-1,2,4-oxadizaol-5-yl)-2-phenylethylamine hydrochloride], in the test with IL-8 (Homo sapiens, Monocyte, 20 h), the IC50 stood at 29 µM.

In the test on IL-8 (Homo sapiens, Monocyte, 20 h), `COC(=O)[C@H](Cc1ccccc1)NC(=O)c1cc2cccc(OCCCCN)c2cc1O` [Example 146, (2S)-3-Phenyl-2-[5-(4-aminobutoxy)-3-hydroxy-2-naphthoylamino]-propionic acid methyl ester hydrochloride] returned an IC50 of 5 µM.

`CCOC(=O)[C@H](Cc1ccccc1)NC(=O)c1ccc(-c2ccc(OCCCCNC)cc2)cc1` [Example 147, N-[4-[4-(4-Methylaminobutoxy)phenyl]benzoyl]-L-phenylalanine ethyl ester hydrochloride]: the IC50 in the test on IL-8 (Homo sapiens, Monocyte, 20 h) was 2 µM.

In the case of `CCOC(=O)[C@H](Cc1ccccc1)NC(=O)c1ccc2oc(SCCCNC)nc2c1` [Example 152, (2S)-2-[2-(3-Methylaminopropylsulfanyl)benzoxazole-5-carbonyl-amino]-3-phenylpropionic acid ethyl ester hydrochloride], in the test on IL-8 (Homo sapiens, Monocyte, 20 h), it took 7 µM to reach half-maximal inhibition (IC50).

The molecule `CCOC(=O)C(Cc1ccccc1)NC(=O)c1cc(Cl)c(OC(=O)C2(CC)CCNCC2)cc1O` (stereo not shown) [Example 156] yielded an IC50 with IL-8 (Homo sapiens, Monocyte, 20 h) of 2 µM.
